Results on three molecules are retold here after patent publication US20160090397A1, “Se-Adenosyl-L-Selenohomocysteine Selenoxide As A Modulator Of Methyltransferase And Other Activities” (priority 2014, published 2016).

Data set [1] deals with histamine N-methyltransferase (HMT) (Homo sapiens, UniProt P50135). The note with it: in vitro; cited from earlier work.
Data set [2] addresses protein methyltransferase II (Homo sapiens, UniProt P22061). The note with it: in vitro; cited from earlier work.
Data set [3] deals with T1, phenylethanolamine N-methyltransferase (PNMT) (Homo sapiens, UniProt P11086).
T1 sequence (P11086 1-282): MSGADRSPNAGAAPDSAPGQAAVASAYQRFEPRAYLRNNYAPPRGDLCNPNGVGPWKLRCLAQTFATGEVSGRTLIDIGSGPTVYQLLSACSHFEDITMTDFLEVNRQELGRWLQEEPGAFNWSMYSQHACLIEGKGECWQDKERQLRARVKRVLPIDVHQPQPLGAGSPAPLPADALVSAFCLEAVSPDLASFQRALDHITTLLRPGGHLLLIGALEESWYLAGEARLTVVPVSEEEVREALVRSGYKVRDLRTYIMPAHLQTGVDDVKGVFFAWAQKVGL
The note with it: in vitro; cited from earlier work.

The target in data set [4] is T2, catechol-O-methyltransferase (COMT) (Homo sapiens, UniProt P21964).
T2 sequence (P21964 1-271): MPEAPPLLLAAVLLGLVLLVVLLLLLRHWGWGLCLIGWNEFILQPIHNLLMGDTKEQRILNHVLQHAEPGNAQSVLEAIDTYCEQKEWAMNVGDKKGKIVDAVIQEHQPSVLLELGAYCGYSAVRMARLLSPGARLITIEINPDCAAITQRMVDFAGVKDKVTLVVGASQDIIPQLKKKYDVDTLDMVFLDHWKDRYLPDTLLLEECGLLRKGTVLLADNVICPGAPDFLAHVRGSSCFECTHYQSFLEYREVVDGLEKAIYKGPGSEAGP
To be noted: in vitro; cited from earlier work.

Data set [5] concerns the target E. coli cyclopropane fatty acid synthase (Escherichia coli, UniProt P0A9H7). To be noted: in vitro; cited from earlier work.
Data set [6] is described as follows: Reduction of selenoxide/sulfoxide by thiols and thioethers at ambient temperature (C18 HPLC). It is filed as physicochemical. The note with it: for reduction by glutathione (GSH) / reduction by cysteine: ambient temperature; for reduction by glutathione (GSH): C18 HPLC. An excerpt:
The sulfoxide SAHO analog was not reduced under these biological conditions with glutathione (GSH) or cysteine. The reduction of sulfoxides generally requires more forcing conditions.

The target in data set [7] is T2, catechol-O-methyltransferase (COMT). Briefly: Reduction upon incubation with methyltransferase COMT. It is filed as biochemical. How it is done:
(§1) However, SeAHO was not reduced upon incubation with the non-methyltransferase protein lysozyme (data not shown). […] The reduction of SeAHO by methyltransferases may result in the oxidation or modification of these enzymes. This property could be exploited to identify methyltransferases that are reactive with SeAHO, or, depending on the site of oxidation, this process may modulate the activities of methyltransferases. In other words, SeAHO may act as a covalent inhibitor (reactive or suicide inhibitor) or activator of these methyltransferases.

Data set [8] has as its system viral mRNA methyltransferases. The note with it: in vitro; cited from earlier work.
Data set [9] has as its target T3, thiopurine methyltransferase (TPMT) (Homo sapiens, UniProt P51580).
T3 sequence (P51580 1-245): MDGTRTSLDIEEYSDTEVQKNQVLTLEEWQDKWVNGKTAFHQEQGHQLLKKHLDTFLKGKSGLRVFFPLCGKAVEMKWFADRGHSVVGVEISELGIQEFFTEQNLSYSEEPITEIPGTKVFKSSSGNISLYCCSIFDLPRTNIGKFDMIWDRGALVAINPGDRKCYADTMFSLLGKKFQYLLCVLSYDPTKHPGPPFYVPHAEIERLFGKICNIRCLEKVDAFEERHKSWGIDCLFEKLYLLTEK
Briefly: Reduction upon incubation with methyltransferase TPMT. It is filed as biochemical. How it is done:
as §1

The next data set concerns lysozyme. As to the kind of experiment: Incubation with non-methyltransferase protein lysozyme. The format is biochemical. To be noted: data not shown. How it is done:
as §1

Data set [10] deals with T2, catechol-O-methyltransferase (COMT). As to the kind of experiment: COMT-catalysed oxidation of epinephrine to adrenochrome with SeAHO. It is filed as biochemical. The note with it: various COMT concentrations. An excerpt:
This reactivity (redox reaction) conferred by SeAHO can be exploited to oxidize substrate compounds in a selective and specific manner.

The nature of data set [11]: Stability of SeAHO in aqueous solutions (HPLC, proton NMR). It is filed as physicochemical. How it is done:
Characterization of selenoxide SeAHO in an aqueous environment was of greater biological significance.
The selenoxide SeAHO generally appeared to be a 60:40 mixture by ^1H NMR in 50 mM phosphate buffers of D2O at measured pH's of 3 and 7.

Data set [12] addresses T3, thiopurine methyltransferase (TPMT). As to the kind of experiment: Oxidation of thionitrobenzoate (TNB), Se-SAHO as TPMT substrate (absorbance). It is filed as biochemical. An excerpt:
FIG. 1 depicts an absorbance spectrum for Se—SAHO as a thiopurine methyltransferase (TPMT) substrate wherein the oxidation of thionitrobenzoate (TNB) by H2O2 causes a clear shift in absorbance maxima from ˜410 nm to ˜325 nm.

“Also recorded” adds a separate entry of the source.

Chain of histamine N-methyltransferase (HMT) (P50135 whole entry, species assumed): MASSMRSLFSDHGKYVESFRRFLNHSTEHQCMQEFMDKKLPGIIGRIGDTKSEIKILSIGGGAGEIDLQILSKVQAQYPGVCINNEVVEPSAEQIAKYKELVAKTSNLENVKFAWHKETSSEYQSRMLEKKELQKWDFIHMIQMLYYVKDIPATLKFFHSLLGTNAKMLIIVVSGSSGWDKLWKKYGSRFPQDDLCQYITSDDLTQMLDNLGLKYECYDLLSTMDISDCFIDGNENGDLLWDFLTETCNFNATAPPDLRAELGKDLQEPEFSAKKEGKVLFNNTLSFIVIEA
Chain of E. coli cyclopropane fatty acid synthase (P0A9H7 whole entry): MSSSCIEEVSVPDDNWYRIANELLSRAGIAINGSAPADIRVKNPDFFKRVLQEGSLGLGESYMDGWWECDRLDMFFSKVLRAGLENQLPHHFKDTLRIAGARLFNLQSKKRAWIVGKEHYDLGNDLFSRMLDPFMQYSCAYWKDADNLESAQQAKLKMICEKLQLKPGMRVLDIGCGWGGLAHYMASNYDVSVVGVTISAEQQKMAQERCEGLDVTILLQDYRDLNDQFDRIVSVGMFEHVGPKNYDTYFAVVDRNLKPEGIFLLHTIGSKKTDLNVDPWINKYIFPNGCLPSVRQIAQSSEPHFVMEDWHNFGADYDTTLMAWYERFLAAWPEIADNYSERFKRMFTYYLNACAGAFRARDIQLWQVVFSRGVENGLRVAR
Chain of protein methyltransferase II (P22061 whole entry): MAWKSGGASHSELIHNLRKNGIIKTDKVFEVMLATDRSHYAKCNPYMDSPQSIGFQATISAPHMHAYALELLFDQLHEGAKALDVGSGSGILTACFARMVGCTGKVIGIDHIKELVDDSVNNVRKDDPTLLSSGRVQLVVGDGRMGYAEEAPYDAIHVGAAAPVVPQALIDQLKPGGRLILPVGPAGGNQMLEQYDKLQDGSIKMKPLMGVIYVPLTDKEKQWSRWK

Take `Nc1ncnc2c1ncn2[C@@H]1O[C@H](C[S+]([O-])CC[C@H](N)C(=O)O)[C@@H](O)[C@H]1O` (some centres unmarked) [SAHO]: the “inhibition of HMT” value in [1] is given as “inhibitor”. Further, in data set [2], the “inhibition of protein methyltransferase II” value was “inhibitor”. In data set [3], the “inhibition of PNMT” value is reported as “inhibitor”. Also, the “inhibition of COMT” value in [4] is recorded as “inhibitor”. Moreover, the “inhibition of E. coli cyclopropane fatty acid synthase” value in data set [5] was “inhibitor”. The “reduction by glutathione (GSH)” value in data set [6] is “not reduced”. Also, in data set [6] (data not shown), the reduction by cysteine result was “not reduced”. The “reduction upon incubation with COMT” value in data set [7] is on record as “remains oxidized”. Further, the “inhibition of viral mRNA methyltransferases” value in [8] is given as “inhibitor”.

In the case of `Nc1ncnc2c1ncn2[C@@H]1O[C@H](C[Se](=O)CC[C@H](N)C(=O)O)C(O)[C@@H]1O` (some centres unmarked) [SeAHO, Se-Adenosylselenohomocysteine selenoxide], the “reduction upon incubation with TPMT” value in data set [9] is listed as “reduced to Se-adenosyl-L-selenohomocysteine (SeAH)”. Also, the “reduction upon incubation with lysozyme” value in the data set on lysozyme is “not reduced”. The “reduction by glutathione (GSH)” value in data set [6] is recorded as “readily reduced”. For the same molecule, in data set [6] (data not shown), the reduction by cysteine entry is “also reduced; also recorded: readily reduced” and the “reduction by thioether methionine” value is “not by thioethers methionine”. The “reduction upon incubation with COMT” value in data set [7] is “reduced to Se-adenosyl-L-selenohomocysteine (SeAH)”. Further, the “COMT-catalysed oxidation of epinephrine to adrenochrome” value in data set [10] was “reacts with epinephrine to form adrenochrome at a rate dependent on COMT concentration; also recorded: catalyzes the oxidation of epinephrine with SeAHO and the production of adrenochrome and SeAH”. The “decomposition by HPLC” value in data set [11] (after 2 weeks or when prepared in pure deionized water) is “some decomposition was observed”. Moreover, the “decomposition by NMR” value in data set [11] (pH 12 phosphate buffer) is “only a very small amount of decomposition was observed”. For the same molecule, the “stability to hydrolysis of the C1′-adenine bond / degradation” value in data set [11] (phosphate buffered aqueous solutions, pH 3-12, ambient temperature, at least three hours, HPLC or proton NMR) is “completely stable”.

“Se-Adenosylselenohomocysteine selenoxide [SeAHO]”: the “oxidation of TNB (shift in absorbance maxima)” value in data set [12] is given as “able to oxidize TNB”.
